From patent US20180153859A1, “METHODS OF TREATING OR PREVENTING COGNITIVE IMPAIRMENT USING INDANE ACETIC ACID DERIVATIVES BASED ON APOE4 GENOTYPE” (T3D Therapeutics, Inc., priority 2016, published 2018)

System: mild to moderate severity Alzheimer's patients
Experiment: ADAS-cog11 cognitive test in Alzheimer's patients stratified by ApoE4 genotype (trial NCT02560753)
Type: in vivo, human
Conditions: for cognitive improvement (ADAS-cog11 score change): D1-D14 and D1-D21
Description: Table 8c compares the average ADAS-cog11 score of all subjects, treated at all doses of T3D-959 in trial NCT02560753 (ClinicalTrials.gov), stratified by ApoE4 genotype and compares those scores with the average score of the group of subjects dosed at 3 mg, 10 mg, and 30 mg/d. ADAS-cog11 score change from day 1 (pre-dosing) to day 14 (D1-D14, end of treatment) and from day 1 to day 21 (D1-D21, followup) are shown.
Shown in this table are ADAS-cog11 cognitive test score changes from before dosing on day 1 of treatment (D1) to end of drug treatment on Day 14 (D14) and at follow-up 7 days post-dosing on Day 21 (D21). Drug treatment of mild to moderate severity Alzheimer's patients (MMSE=14-26) with T3D-959 was for 14 days q.d. at 3 mg, 10 mg, 30 mg or 90 mg (n=number of subjects evaluable at each dose). The ADAS-cog11 test score changes at each dose were stratified by ApoE4 genotype [E4=one or two ApoE4 alleles, Non-E4=no ApoE4 alleles].
ADAS-cog score change from day 1 to day 14 (D1-D14) and from day 1 to day 21 (D1-D21) are shown.
Adult human subjects who were tested for the presence of the ApoE4 gene (one or two E4 alleles) and had Alzheimer's disease were tested with the compound of the invention ((1S)-5-{5-ethyl-2-(4-methoxyphenyl)-1,3-oxazol-4-yl]ethoxy}-2,3-dihydro-1H-inden-1-yl) acetic acid, sodium salt. Subjects either lacked ApoE4 alleles (non-E4) or had one or two ApoE4 alleles (E4).

| Compound | most effective / required daily dose for cognitive improvement (AD subjects with one or two ApoE4 alleles) | most effective daily dose for cognitive improvement (ApoE4 non-carrier AD subjects) | cognitive improvement (ADAS-cog11 score change) (ApoE4 non-carriers, 3 mg, 10 mg and 30 mg/d q.d. for 14 days) | cognitive improvement (ADAS-cog11 score change) (ApoE4 carriers (one or two ApoE4 alleles), 30 mg and 90 mg/d q.d. for 14 days) | cognitive improvement (ADAS-cog11 score change) (ApoE4 non-carriers, 3 mg, 10 mg and 30 mg/d q.d. for 14 days, acetic acid, sodium salt) |
| --- | --- | --- | --- | --- | --- |
| CCc1oc(-c2ccc(OC)cc2)nc1CCOc1ccc2c(c1)CC[C@H]2CC(=O)[O-].[Na+] | ≥ 30 mg | 3 to 30 mg qd | showed improvement in cognition | – | – |
| CCc1oc(-c2ccc(OC)cc2)nc1CCOc1ccc2c(c1)CC[C@H]2CC(=O)[O-].[Na+] [Example T3D-959] | – | – | – | improvement | greater cognitive improvement |
